Measured values from paper PMC4204995, “Inhibition of Influenza Virus Replication by Targeting Broad Host Cell Pathways” (PLoS ONE, 2014).
Values joined by “and” are separate entries in the source; they are usually repeats but may differ in a detail not shown here. Equal entries are not always repeated. Structures can show the parent of a compound that is named as a salt. Where two headings read alike, the source gives them in different places.

Key:
[1] = test system: A/Puerto Rico/8/34 (H1N1); test: microbe, parasite or virus in culture; format: cell-based, influenza A virus; conditions: for EC50: read-out: EC50 values, A/Puerto Rico/8/34 (H1N1)
[2] = test system: A/California-like/2009 (H1N1); test: microbe, parasite or virus in culture; format: cell-based, influenza A virus
[3] = test system: viral acidic polymerase (PA) expression, PR8 virus; format: cell-based, influenza A virus
MDCK cells [4] = test: XTT cytotoxicity assay in MDCK cells; conditions: MDCK cells; for CC50: XTT cell viability, 2 days
A/Hong Kong/X31 (H3N2) = test: microbe, parasite or virus in culture; format: cell-based, influenza A virus; conditions: read-out: EC50 values, A/Hong Kong/X31 (H3N2)
[5] = test system: A/Swine/OTH-33-2/2009 (H1N1); format: cell-based, influenza A virus
MDCK cells [6] = test system: MDCK cells
in vitro = conditions: dog
PR8 virus = format: cell-based, influenza A virus
[7] = XTT cytotoxicity assay in MDCK cells; conditions: dog
[8] = test system: A/Puerto Rico/8/34 (H1N1); test: microbe, parasite or virus in culture; format: cell-based; conditions: Influenza A virus, H1N1 / PR8, Calu-3, 48 h, read-out: EC50 values
[9] = XTT cytotoxic assay in Calu-3 cells; format: cell-based; conditions: human
PR8 influenza virus = format: cell-based, influenza A virus
[10] = Influenza A virus, H3N2, MDCK, 48 h
[11] = Influenza A virus, H1N1, MDCK, 48 h
[12] = Influenza A virus, H1N1, MDCK, 48 h, read-out: EC50 values, A/California-like/2009 (H1N1)
[13] = read-out: EC50 values, A/California-like/2009 (H1N1)

| SMILES | decrease of PA expression [3] | EC50 (A/Hong Kong/X31 (H3N2); [10]) [µM] | EC50 [1, 11] [µM] | EC50 [2, 12] [µM] | CC50 (in vitro) [µM] | effect on viral replication (PR8 virus) | further results |
| --- | --- | --- | --- | --- | --- | --- | --- |
| CO/C1=C\C(C)=C\[C@@H](C)[C@@H](O)[C@@H](C)C/C(C)=C/C=C/[C@H](OC)[C@@H]([C@@H](C)[C@@H](O)[C@H](C)[C@@]2(O)C[C@@H](O)[C@H](C)[C@@H](C(C)C)O2)OC1=O [Bafilomycin A, bafilomycin A] | more than 90% | – | – | – | – | – | EC50 [1]: 0.004 µM; EC50 ([2]; read-out: EC50 values, A/California-like/2009 (H1N1), result as symbol): < 0.004 µM; CC50 (MDCK cells [4]; footnote c: [ ] in nM): 16.8 ± 9.02 nM |
| CCN(CC)CCCC(C)Nc1c2ccc(Cl)cc2nc2ccc(OC)cc12 (stereo not shown) [Quinacrine, quinacrine dihydrochloride] | more than 90% | 5.97 ± 0.91 | 2.96 ± 0.87 | 1.88 ± 0.87 | 14.6 ± 8.51 | – | inhibition of replication [5]: more than 60%; toxicity (MDCK cells [6]): no toxicity; cell death (MDCK cells [6]; dog): 10% |
| CNc1ccc2oc(C[C@H]3O[C@@]4(CC[C@H]3C)O[C@H]([C@H](C)C(=O)c3ccc[nH]3)[C@H](C)C[C@H]4C)nc2c1C(=O)O [A23187 (calcimycin), calcimycin (A23187)] | 42% | 0.08 ± 0.01 | 0.08 ± 0.01 | 0.22 ± 0.01 | – | completely inhibit viral replication | CC50 at 2 days [7]: 0.413 ± 0.21 µM |
| COc1cc(CNC(=O)CCCC/C=C/C(C)C)ccc1O [Capsaicin, capsaicin] | approximately 48% | 55.2 ± 7.2 | 58.8 ± 8.32 | 44.7 ± 8.15 | – | – | CC50 at 2 days [7]: 157 ± 9.63 µM; toxicity (MDCK cells [4]; at 100 µM): no significant toxicity; cell death (MDCK cells [4]; at 200 µM): 50% |
| CCN(CC)Cc1cc(Nc2ccnc3cc(Cl)ccc23)ccc1O [Amodiaquine, amodiaquin dihydrochloride dihydrate] | 82% | 2.63 ± 0.9 | 2.76 ± 0.95 | 1.48 ± 0.92 | 26.2 ± 8.43 | abrogate viral replication | reduction of PR8 replication [1]: ~26%; inhibition of replication [5]: more than 60%; EC50 [8]: 1.25 to 2.5 µM; CC50 [9]: 53.6 ± 8.8 µM; effect on viral replication in growth kinetics assays (PR8 influenza virus): inhibited viral replication |
| COc1cc(NC(C)CCCN)c2ncccc2c1 (stereo not shown) [Primaquine, primaquine diphosphate] | 62% | 29.5 ± 9.42 | 8.58 ± 0.89 | 28.6 ± 9.45 | – | – | inhibition of replication [5]: less than 20% |
| CCN(CC)CCCC(C)Nc1ccnc2cc(Cl)ccc12 (stereo not shown) [Chloroquine, chloroquine diphosphate salt] | – | 4.31 ± 0.96 | 0.61 ± 0.91 | 4.01 ± 0.8 | – | abrogate viral replication | inhibition of replication [5]: more than 60% |
| C=C[C@H]1C[N@@]2CC[C@H]1C[C@H]2[C@H](O)c1ccnc2ccc(OC)cc12 [Quinine, Quinine sulfate] | more than 90% | 17.1 ± 8.7 | 9.1 ± 0.89 | 12.2 ± 8.49 | 409 ± 82.2 | abrogate viral replication | concentration needed to abrogate viral replication [1]: 50 µM; concentration needed to abrogate viral replication (PR8 virus): 60 µM |
| C=C[C@H]1C[N@@]2CC[C@H]1C[C@@H]2[C@@H](O)c1ccnc2ccc(OC)cc12 [Quinidine, quinidine anhydrous] | more than 90% | 19.8 ± 8.83 | 16.2 ± 8.9 | 5.11 ± 0.76 | 167 ± 94.2 | – | dose range at which IAV replication is inhibited [1]: ≥ 16.2 µM |
| OC(c1cc(C(F)(F)F)nc2c(C(F)(F)F)cccc12)C1CCCCN1 (stereo not shown) [Mefloquine, mefloquine hydrochloride] | 82% | 6.66 ± 0.75 | 5.13 ± 0.87 | – | 22.9 ± 1.3 | – | EC50 ([2]; Influenza A virus, H1N1, MDCK, read-out: EC50 values, A/California-like/2009 (H1N1), result as symbol): > 22.9 µM |
| CCC(CC)O[C@@H]1C=C(C(=O)O)C[C@H](N)[C@H]1NC(C)=O [Oseltamivir carboxylate] | – | – | – | – | – | – | EC50 (A/Hong Kong/X31 (H3N2)): 0.00074 ± 8e-05 µM; reduction of PR8 replication [1]: approximately 30%; EC50 [1]: 0.05 µM and 0.0499 µM; EC50 [2, 13]: 0.103 ± 0.0321 µM; EC50 (PR8 virus): 0.313 µM; CC50 (MDCK cells [6]): > 1000 µM |
| COc1ccc(CCN(C)CCCC(C#N)(c2ccc(OC)c(OC)c2)C(C)C)cc1OC (stereo not shown) [Verapamil, verapamil hydrochoride] | – | 19.6 ± 8.75 | – | – | – | – | EC50 [8]: 1.25 to 2.5 µM |
| CCN(CC)CCCCCCCCOC(=O)c1cc(OC)c(OC)c(OC)c1.Cl [TMB-8, TMB-8 hydrochloride] | – | – | – | – | – | completely inhibit viral replication | EC50 (A/Hong Kong/X31 (H3N2)): 21.7 ± 9.31 µM; inhibition of PR8 replication ([1]; 10 µM): 90%; EC50 [1]: 2.5 ± 0.91 µM; EC50 [2, 13]: 12.7 ± 8.65 µM; effect on PA gene expression [3]: almost completely abolished; cell death (MDCK cells [6]): 25%; toxicity (MDCK cells [6]): no significant toxicity; CC50 (MDCK cells [4]): 52300 ± 8380 nM |
| CN(C)c1nc(N)c(C(=O)NC(=N)N)nc1Cl [5-(N,N-Dimethyl)amiloride hydrochloride, 5-(N,N-Dimethyl) amiloride hydrochloride] | – | 20.4 ± 8.62 | 31.1 ± 7.72 | 63.5 ± 5.77 | – | – | effect on PA gene expression [3]: almost completely abolished; inhibition of viral replication (PR8 virus): 80%; CC50 at 2 days (in vitro): 175 ± 10.2 µM |
